Test systems include UO-31 renal; RPMI-8226 leukemia; ACHN renal; RXF 393 renal; A498 renal; MDA-MB-435; MOLT-4 leukemia; SF-295 CNS; CAKI-1 renal; HCT-116 colon.
Holding throughout (test): inhibition of tumour cell growth, NCI panel, 48 h

Each structure is given as a SMILES string. Several values for one entry are separate records, joined by “and”; a condition that tells them apart may be missing. Identical values can stand only once.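 Compound exposure: 48 hours, 5 concentrations, 96-well plates. GI50: concentration for 50% inhibition of growth. The concentration for full growth arrest is given as TGI.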

On to `CCN1CCN(CCNc2nccc(-c3c(-c4cccc(O)c4)nc4sccn34)n2)S1(=O)=O`, for which the GI50 was 15.1 µM and 5.75 µM in the assay on UO-31 renal; 6.37 µM and 16.3 µM in the assay on RPMI-8226 leukemia; 6.72 µM and 4.13 µM with ACHN renal; 4.02 µM and 5.06 µM in the assay on RXF 393 renal; 16.6 µM and 3.97 µM with A498 renal; 313 nM and 376 nM in the assay on MDA-MB-435. Also, the GI50 was 19.2 µM and 21.7 µM with MOLT-4 leukemia; 14.2 µM and 16.4 µM with SF-295 CNS; 7.33 µM and 3 µM with CAKI-1 renal; 9.72 µM and 3.63 µM in the assay with HCT-116 colon. The TGI in the assay with UO-31 renal is 32.5 µM and 74 µM; in the assay on RPMI-8226 leukemia, 20.7 µM and 40.8 µM; with ACHN renal, 32 µM and > 100 µM; in the assay with RXF 393 renal, 22.7 µM and 36.3 µM; in the assay with A498 renal, 32.5 µM and 25.6 µM; with MDA-MB-435, 14.5 µM and 5.79 µM. Besides, the TGI in the assay on MOLT-4 leukemia is 32.5 µM and 57.6 µM; with SF-295 CNS, 32.5 µM and 48.8 µM; in the assay on CAKI-1 renal it was 28.5 µM and > 100 µM; with HCT-116 colon, 32.5 µM and 55.3 µM.
Consider `COc1ccccc1/C=C1\CCC(CN(C)C)C1=O` (stereo not given), for which the TGI came to 18 µM in the assay with UO-31 renal; 21.1 µM with RPMI-8226 leukemia; 15.2 µM in the assay with ACHN renal; 9.13 µM in the assay on RXF 393 renal; 34.1 µM in the assay with A498 renal; 25.2 µM with MDA-MB-435. The TGI in the assay with MOLT-4 leukemia was found to be 17.5 µM; with SF-295 CNS, 29.7 µM; with CAKI-1 renal, 12 µM; in the assay on HCT-116 colon it was 18.1 µM.
On to `CCCCC(SC(=S)N(CC)CC)C(=O)Nc1nc(CC(=O)OCC)cs1` (stereo not given), for which the GI50 in the assay with UO-31 renal was 47.6 µM; in the assay on RPMI-8226 leukemia, 22 µM; with ACHN renal it was 67.3 µM; in the assay on RXF 393 renal, 32.5 µM; in the assay with A498 renal, 54.3 µM; in the assay with MDA-MB-435, 31400 nM. Also, the GI50 with MOLT-4 leukemia was 20.2 µM; with SF-295 CNS it was 38.6 µM; with CAKI-1 renal, 91.7 µM; in the assay with HCT-116 colon, 29.8 µM. Also, the TGI in the assay with UO-31 renal is greater than 100 µM; in the assay on RPMI-8226 leukemia, 85.2 µM; in the assay on ACHN renal it was greater than 100 µM; in the assay with RXF 393 renal, greater than 100 µM; with A498 renal, greater than 100 µM; in the assay on MDA-MB-435, greater than 100 µM. Also, the TGI with MOLT-4 leukemia, in the assay on SF-295 CNS, in the assay on CAKI-1 renal and with HCT-116 colon was greater than 100 µM each time.
As for `CC(C)[C@@H]1NC(=O)[C@]2(C)CSC(=N2)c2csc(n2)CNC(=O)C[C@@H](/C=C/CCS)OC1=O`, the GI50 in the assay with UO-31 renal was 0.605 µM; in the assay with RPMI-8226 leukemia it was 0.563 µM; in the assay on ACHN renal it was 1.75 µM; in the assay with RXF 393 renal, 0.0521 µM; in the assay with A498 renal it was 0.0156 µM; in the assay on MDA-MB-435 it was 61.2 nM. Also, the GI50 was 0.171 µM in the assay with MOLT-4 leukemia, 0.0358 µM in the assay with SF-295 CNS, 1.83 µM with CAKI-1 renal and 0.123 µM in the assay with HCT-116 colon. In addition, the TGI with UO-31 renal worked out at 6.5 µM; in the assay on RPMI-8226 leukemia, 6.62 µM; in the assay with ACHN renal, 9.12 µM; in the assay with RXF 393 renal, 0.33 µM; in the assay with A498 renal it was 0.114 µM; in the assay with MDA-MB-435 it was 4.17 µM. The TGI in the assay on MOLT-4 leukemia is greater than 100 µM; with SF-295 CNS it was 0.51 µM; with CAKI-1 renal, 7.83 µM; in the assay on HCT-116 colon, 1.08 µM.
As to `S=C(Nc1ccc(-c2nc3ccccc3s2)cc1)Nc1ccccn1`, the GI50 was 19.6 µM in the assay with UO-31 renal; 33.8 µM with RPMI-8226 leukemia; 26.3 µM in the assay on ACHN renal; 33.1 µM with RXF 393 renal; 19.8 µM in the assay on A498 renal; 28400 nM in the assay with MDA-MB-435. In addition, the GI50 was 18.8 µM in the assay with MOLT-4 leukemia, 24.5 µM in the assay on SF-295 CNS, 17.3 µM with CAKI-1 renal and 21.5 µM in the assay with HCT-116 colon. Moreover, the TGI with UO-31 renal was greater than 68.9 µM; with RPMI-8226 leukemia, greater than 100 µM; with ACHN renal, greater than 70.8 µM; in the assay with RXF 393 renal, greater than 74.5 µM; in the assay with A498 renal, 44.7 µM; with MDA-MB-435 it was 97.2 µM. For the same compound, the TGI with MOLT-4 leukemia was greater than 86.7 µM; in the assay with SF-295 CNS it was 66.3 µM; in the assay with CAKI-1 renal, 45.7 µM; in the assay with HCT-116 colon, 55.5 µM.
For the compound `Clc1cccc(Cn2cc(Cc3cn(Cc4cccc(Cl)c4)c4ccccc34)c3ccccc32)c1`, the GI50 was 10.5 µM in the assay on UO-31 renal; greater than 100 µM with RPMI-8226 leukemia; greater than 100 µM with ACHN renal; greater than 100 µM in the assay on RXF 393 renal; greater than 100 µM with A498 renal; greater than 100000 nM with MDA-MB-435. For the same compound, the GI50 was greater than 100 µM in the assay with MOLT-4 leukemia, 86.2 µM with SF-295 CNS, greater than 100 µM in the assay with CAKI-1 renal and greater than 100 µM in the assay with HCT-116 colon. Further, the TGI in the assay with UO-31 renal, in the assay with RPMI-8226 leukemia, with ACHN renal, in the assay on RXF 393 renal, in the assay on A498 renal and in the assay with MDA-MB-435 was greater than 100 µM throughout. For the same compound, the TGI in the assay with MOLT-4 leukemia, in the assay on SF-295 CNS, in the assay on CAKI-1 renal and in the assay on HCT-116 colon was greater than 100 µM in each case.
As to `NC(=O)Cc1ccccc1Oc1nccc(-c2c(-c3ccc(F)cc3)ncn2C2CCNCC2)n1`, the GI50 was greater than 25 µM in the assay with UO-31 renal; greater than 25 µM in the assay on RPMI-8226 leukemia; greater than 25 µM in the assay with ACHN renal; greater than 25 µM in the assay with RXF 393 renal; greater than 25 µM with A498 renal; greater than 25000 nM in the assay on MDA-MB-435. Moreover, the GI50 in the assay on MOLT-4 leukemia, in the assay on SF-295 CNS, in the assay on CAKI-1 renal and with HCT-116 colon was greater than 25 µM each time. Further, the TGI with UO-31 renal, in the assay with RPMI-8226 leukemia, with ACHN renal, with RXF 393 renal, in the assay on A498 renal and in the assay on MDA-MB-435 was greater than 25 µM each time. Besides, the TGI in the assay with MOLT-4 leukemia, in the assay with SF-295 CNS, in the assay on CAKI-1 renal and in the assay on HCT-116 colon was greater than 25 µM throughout.
For `Cc1nc(NC(=O)COc2cccc(/C=C3\COc4ccccc4C3=O)c2)sc1C`, the GI50 in the assay on UO-31 renal is 0.704 µM; with RPMI-8226 leukemia it was 14.8 µM; with ACHN renal, 1.85 µM; with RXF 393 renal, 1.78 µM; with A498 renal, 12.6 µM; with MDA-MB-435, 2140 nM. Besides, the GI50 in the assay with MOLT-4 leukemia is 3.5 µM; with SF-295 CNS, 1.64 µM; in the assay with CAKI-1 renal, 1.5 µM; in the assay on HCT-116 colon, 1.53 µM. The TGI is 1.63 µM in the assay on UO-31 renal; greater than 100 µM in the assay on RPMI-8226 leukemia; 3.77 µM with ACHN renal; 3.48 µM in the assay on RXF 393 renal; 25.2 µM in the assay with A498 renal; 5.74 µM in the assay with MDA-MB-435. Moreover, the TGI is greater than 100 µM with MOLT-4 leukemia, 3.33 µM in the assay with SF-295 CNS, 3.41 µM in the assay on CAKI-1 renal and 3.04 µM in the assay on HCT-116 colon.

These data come from PubChem BioAssay (NCI).
